According to patent US20050245399A1, “Pyrazole derivatives as herbicidal compositions containing them” (ISHIHARA SANGYO KAISHA, LTD., priority 2004, published 2005):

What was measured:
Type in all cases: in vivo
[1] = test system: barnyardgrass (Echinochloa crus-galli L.): ECHCG; assay: Test Example 1 pre-emergence herbicidal activity, ECHCG; details: Rate 63 g a.i./ha, visually observed 20th to 23rd day after application
In short: (§1)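 Percent growth control, rated visually 20–23 d after a pre-emergence spray applied 1 d post-sowing; compound formulated as WP or EC in 500 L/ha water at a predetermined a.i. amount.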

[2] = test system: prickly sida (Sida spinosa L.): SEDSP; assay: Test Example 1 pre-emergence herbicidal activity, SIDSP; details: Rate 63 g a.i./ha, visually observed 20th to 23rd day after application
In short: as §1

[3] = test system: velvetleaf (Abutilon theophrasti): ABUTH; assay: Test Example 1 pre-emergence herbicidal activity, ABUTH; details: Rate 63 g a.i./ha, visually observed 20th to 23rd day after application
In short: as §1

[4] = test system: rice (Oryza sativa L.): ORYSA; assay: Test Example 1 pre-emergence herbicidal activity, ORYSA; details: Rate 63 g a.i./ha, visually observed 20th to 23rd day after application
In short: as §1

[5] = test system: wheat (Triticum aestivum L.): TRZAX; assay: Test Example 1 pre-emergence herbicidal activity, TRZAX; details: Rate 63 g a.i./ha, visually observed 20th to 23rd day after application
In short: as §1

[6] = test system: soybean (Glycine max Merr.): GLXMA; assay: Test Example 1 pre-emergence herbicidal activity, GLXMA; details: Rate 63 g a.i./ha, visually observed 20th to 23rd day after application
In short: as §1

[7] = test system: barnyardgrass (Echinochloa crus-galli L.), ECHCG; assay: Test Example 2 post-emergence (foliage treatment) herbicidal activity, ECHCG; details: 63 g a.i./ha
In short: (§2)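 Each species was evaluated for growth suppression by eye, 0% matching untreated and 100% meaning death, some 20 to 23 days after a single post-emergence foliar treatment applied in 500 L/ha of water carrying 0.1% (v/v) agricultural spreader.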

[8] = test system: crabgrass (Digitaria sanguinalis L.), DIGSA; assay: Test Example 2 post-emergence (foliage treatment) herbicidal activity, DIGSA; details: 63 g a.i./ha
In short: as §2

[9] = test system: green foxtail (Setaria viridis L.), SETVI; assay: Test Example 2 post-emergence (foliage treatment) herbicidal activity, SETVI; details: 63 g a.i./ha
In short: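 A small sprayer delivered the diluted WP or EC formulation (500 L/ha water, 0.1% v/v spreader) over emerged seedlings in upland soil pots. Damage relative to untreated plants was graded visually from 0 to 100% three weeks or so later (days 20-23).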

[10] = test system: common cocklebur (Xanthium strumarium L.), XANST; assay: Test Example 2 post-emergence (foliage treatment) herbicidal activity, XANST; details: 63 g a.i./ha
Description: Upland field soil was put into a 1/170,000 ha pot, and seeds of various plants were sown. Then, when the plants reached predetermined leaf stages {1. barnyardgrass (Echinochloa crus-galli L.), ECHCG: 1.1-2.1 leaf stage, 2. crabgrass (Digitaria sanguinalis L.), DIGSA: 1.0-2.0 leaf stage, 3. green foxtail (Setaria viridis L.), SETVI: 1.0-2.2 leaf stage, 4. redroot pigweed (Amaranthus retroflexus L.), AMARE: 0.1-1.5 leaf stage, 5. prickly sida (Sida spinosa L.), SIDSP: 0.1-0.6 leaf stage, 6. velvetleaf (Abutilon theophrasti), ABUTH: 0.1-0.6 leaf stage, 7. common cocklebur (Xanthium strumarium L.), XANST: 0.1 leaf stage, 8. rice (Oryza sativa L.), ORYSA; 1.0-2 leaf stage, 9. wheat (Triticum aestivum L.), TRZAX: 2.3-3.5 leaf stage, 10. corn (Zea mays L.), ZEAMXN 2.1-2.6 leaf stage, 11. soybean (Glycine max Merr.), GLXMA: primary leaf stage}, a wettable powder or emulsifiable concentrate having the compound of the present invention formulated in accordance with a usual formulation method, was weighed so that the active ingredient would be a predetermined amount, and diluted with water in an amount of 500 L/ha. To the diluted solution, 0.1% (v/v) of an agricultural spreader was added. The herbicide adjusted was applied by a small size sprayer for foliage treatment. On the 20th to 23rd day after the application of the herbicide, the growth of the respective plants was visually observed, and the herbicidal effects were evaluated by growth controlling degrees (%) ranging from 0 (equivalent to the untreated control) to 100 (complete kill), whereby the results shown in Table 5, were obtained. Compound Nos. in Table 5 correspond to Compound Nos. in Table 1 and 2 given hereinbefore.

[11] = test system: japanese bulrush (Scirpus juncoides: SCPJO); assay: Test Example 3 water application herbicidal activity (paddy), SCPJO; details: 63 g a.i./ha, water application under submerged condition at 0.5 leaf stage, visually observed 14th day after application; 0 = untreated control, 100 = complete kill
In short: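 Submerged application in flooded paddy soil (3–4 cm water); weeds treated at 0.5-leaf stage, transplanted rice 4 d after transplanting. Scored visually as % growth control: weeds at 14 d, rice at 21 d.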

[12] = test system: rice (Oryza sativa L.: ORYSA); assay: Test Example 3 water application herbicidal activity (paddy), transplanted rice ORYSA; details: 63 g a.i./ha, water application 4th day after transplantation of 2 leaf stage rice, visually observed 21st day after application; 0 = untreated control, 100 = complete kill
In short: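 Flooded paddy-soil pots in greenhouse; ECHOR and SCPJO sown, SAGPY tubers planted a day later, compound applied into 3–4 cm water at weeds' 0.5-leaf stage. Rice transplanted at 2-leaf stage, treated day 4 after transplanting. Visual growth control 0–100% at 14 days (weeds) and 21 days (rice) after application.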

[13] = test system: common cocklebur (Xanthium strumarium L.): XANST; assay: Test Example 1 pre-emergence herbicidal activity, XANST; details: Rate 63 g a.i./ha, visually observed 20th to 23rd day after application
Description: Upland field soil was put into a 1/170,000 ha pot, and seeds of various plants {1. barnyardgrass (Echinochloa crus-galli L.): ECHCG, 2. crabgrass (Digitaria sanguinalis L.): DIGSA, 3. green foxtail (Setaria viridis L.): SETVI, 4. redroot pigweed (Amaranthus retroflexus L.): AMARE, 5. prickly sida (Sida spinosa L.): SEDSP, 6. velvetleaf (Abutilon theophrasti): ABUTH, 7. common cocklebur (Xanthium strumarium L.): XANST, 8. rice (Oryza sativa L.): ORYSA, 9. wheat (Triticum aestivum L.): TRZAX, 10. corn (Zea mays L.): ZEAMX, 11. soybean (Glycine max Merr.): GLXMA} were sown. Then, one day after the sowing, a wettable powder or emulsifiable concentrate having the compound of the present invention formulated in accordance with a usual formulation method, was weighed so that the active ingredient would be a predetermined amount and diluted with water in an amount of 500 L/ha. The herbicide adjusted was applied by a small size sprayer for preemergence treatment. On the 20th to 23rd day after the application of the herbicide, the growth of the respective plants was visually observed, and the herbicidal effects were evaluated by growth controlling degrees (%) ranging from 0 (equivalent to the untreated control) to 100 (complete kill), whereby the results shown in Table 4, were obtained. Compound Nos. in Table 4 correspond to Compound Nos. in Table 1 and 2 given hereinbefore.

Structure (SMILES) | Pre-emergence Herbicidal Activity ECHCG (growth controlling degree) [1] [%] | Pre-emergence Herbicidal Activity SIDSP (growth controlling degree) [2] [%] | Pre-emergence Herbicidal Activity ABUTH (growth controlling degree) [3] [%] | Pre-emergence Herbicidal Activity ORYSA (growth controlling degree) [4] [%] | Pre-emergence Herbicidal Activity TRZAX (growth controlling degree) [5] [%] | Pre-emergence Herbicidal Activity GLXMA (growth controlling degree) [6] [%] | growth controlling degree, ECHCO [7] [%] | growth controlling degree, DIGSP [8] [%] | growth controlling degree, SETVI [9] [%] | growth controlling degree, XANST [10] [%] | growth controlling degrees (%) SCPJO [11] [%] | growth controlling degrees (%) ORYSA [12] [%] | Pre-emergence Herbicidal Activity XANST (growth controlling degree) [13] [%]
CNc1c(OC)c(Cl)cc(F)c1-c1nn(C)c(OC(F)F)c1Cl [Compound 1-58] | 100 | 100 | 95 | 60 | 10 | 20 | 100 | 100 | 100 | 100 | 100 | 70 | –
COc1c(Cl)cc(F)c(-c2nn(C)c(OC(F)F)c2Cl)c1N(C=O)CC(=O)c1ccccc1 [Compound 1-12] | 70 | 100 | 100 | 40 | 20 | 40 | 70 | 30 | 95 | 50 | 50 | 35 | 50
COc1c(Cl)cc(F)c(-c2nn(C)c(OC(F)F)c2Cl)c1N(C=O)CC(=O)c1ccc(Cl)cc1 [Compound 1-13] | 80 | 100 | 100 | 70 | 30 | 50 | 80 | 70 | 90 | 50 | 40 | 10 | 50
COc1c(Cl)cc(F)c(-c2nn(C)c(OC(F)F)c2Cl)c1N(C=O)CC(C)=O [Compound 1-14] | 98 | 100 | 100 | 40 | 40 | 60 | 98 | 98 | 100 | 100 | 90 | 50 | 100
COc1c(Cl)cc(F)c(-c2nn(C)c(OC(F)F)c2Cl)c1NC(=O)C=C(C)C [Compound 1-9] | 80 | 100 | 100 | 80 | 40 | 90 | 80 | 98 | 100 | 70 | 100 | 30 | 70
COc1c(Cl)cc(F)c(-c2nn(C)c(OC(F)F)c2Cl)c1NC(C)C [Compound 1-59] | 60 | 100 | 95 | 50 | 30 | 30 | 100 | 98 | 100 | 100 | 80 | 40 | –
COc1c(Cl)cc(F)c(-c2nn(C)c(OC(F)F)c2Cl)c1N(C)C=O [Compound 1-6] | 20 | 40 | 50 | 20 | 20 | 0 | 60 | 70 | 100 | 95 | 60 | 50 | –
COc1c(Cl)cc(F)c(-c2nn(C)c(OC(F)F)c2Cl)c1NC1CCCC1 [Compound 1-60] | 0 | 0 | 30 | 0 | 0 | 0 | 100 | 80 | 100 | 100 | 60 | 30 | –
